Key:
[1] = test system: normal NK cells expanded with K562-aAPC; test: drug sensitivity score (DSS) (DSS units); higher = more sensitive; extreme values may be limits of the assay; settings: 72 h; IL-2 2.5 ng/mL
Experimental: (§1)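 Drug sensitivity and resistance testing on K562-aAPC-expanded normal NK cells: 5 concentrations (10-fold steps over a 10,000-fold range), 72 h at 37 °C, viability by CellTiter-Glo normalised to DMSO and benzethonium chloride controls; DSS from the fitted curve.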

[2] = test system: normal primary NK cells, pool 1 (3 donors) (IL-2 2.5 ng/mL); test: as above; settings: 72 h
[3] = test system: NK-YS (IL-2 2.5 ng/mL); test: as above; settings: 72 h
[4] = test system: normal primary NK cells, pool 2 (3 donors) (IL-2 2.5 ng/mL); test: as above; settings: 72 h
[5] = test system: normal primary NK cells, pool 3 (3 donors) (IL-2 2.5 ng/mL); test: as above; settings: 72 h
[6] = test system: YT (IL-2 2.5 ng/mL); test: as above; settings: 72 h
[7] = test system: NK-92 (IL-2 2.5 ng/mL); test: as above; settings: 72 h
[8] = test system: DERL-7 (IL-2 2.5 ng/mL); test: as above; settings: 72 h
[9] = test system: NKL (IL-2 2.5 ng/mL); test: as above; settings: 72 h
[10] = test system: KHYG-1 (IL-2 2.5 ng/mL); test: as above; settings: 72 h
[11] = test system: normal primary NK cells, pool 1 (3 donors), resting (IL-2 0 ng/mL); test: as above; settings: 72 h
[12] = test system: SNK-6 (IL-2 2.5 ng/mL); test: as above; settings: 72 h
[13] = test system: IMC-1 (IL-2 20 ng/mL); test: as above; settings: 72 h
[14] = test system: KAI3 (IL-2 2.5 ng/mL); test: as above; settings: 72 h
[15] = test system: normal primary NK cells, pool 1 (3 donors) (IL-2 2.5 ng/mL); test: percent inhibition of viability; higher = more inhibition; settings: 72 h
[16] = test system: NK-YS (IL-2 2.5 ng/mL); test: as above; settings: 72 h
[17] = test system: normal primary NK cells, pool 2 (3 donors) (IL-2 2.5 ng/mL); test: as above; settings: 72 h
[18] = test system: normal primary NK cells, pool 3 (3 donors) (IL-2 2.5 ng/mL); test: as above; settings: 72 h
[19] = test system: YT (IL-2 2.5 ng/mL); test: as above; settings: 72 h
[20] = test system: NK-92 (IL-2 2.5 ng/mL); test: as above; settings: 72 h
[21] = test system: DERL-7 (IL-2 2.5 ng/mL); test: as above; settings: 72 h
[22] = test system: NKL (IL-2 2.5 ng/mL); test: as above; settings: 72 h
[23] = test system: KHYG-1 (IL-2 2.5 ng/mL); test: as above; settings: 72 h
[24] = test system: normal primary NK cells, pool 1 (3 donors), resting (IL-2 0 ng/mL); test: as above; settings: 72 h
[25] = test system: SNK-6 (IL-2 2.5 ng/mL); test: as above; settings: 72 h
[26] = test system: IMC-1 (IL-2 20 ng/mL); test: as above; settings: 72 h
[27] = test system: KAI3 (IL-2 2.5 ng/mL); test: as above; settings: 72 h
[28] = test system: normal NK cells expanded with K562-aAPC; test: as above; settings: 72 h, IL-2 2.5 ng/mL
Experimental: as §1

Cc1cc(Nc2ncc(Cl)c(Nc3ccccc3S(=O)(=O)C(C)C)n2)c(OC(C)C)cc1C1CCNCC1 [Ceritinib] (max concentration tested 2500 nM)
Settings | drug sensitivity score
[1] | 0.89
[2] | 3.33
[3] | 0.89
[4] | 0.23
[5] | 0
[6] | 0
[7] | 0
[8] | 0.92
[9] | 0.89
[10] | 0
[11] | 5.8
[12] | 0
[13] | 0.89
[14] | 0

percent inhibition of viability [%]
Settings | 0.25 nM | 2.5 nM | 25 nM | 250 nM | 2500 nM
[15] | -2.74 | -3.9 | 0.34 | 4.28 | 50.2
[16] | -0.73 | -3.11 | -3.16 | -7.84 | -1.32
[17] | -8.08 | -2.52 | -12.5 | -0.57 | 15.4
[18] | -5.64 | -4.98 | -6.68 | -5.81 | 0.68
[19] | 2.57 | -0.77 | -0.72 | -2.37 | 3.15
[20] | 7.74 | -3.66 | -9.06 | -14.7 | -17.8
[21] | 3.63 | 5.92 | -4.52 | 1.56 | 21.8
[22] | -3.75 | -12.6 | -15.7 | -9.51 | -1.79
[23] | 0.86 | -4.67 | -2.14 | -5.38 | -4.91
[24] | -7.32 | -13.8 | 7.94 | 12 | 69
[25] | 10.1 | 11.8 | 6.18 | -2.76 | -12.8
[26] | -2.25 | -2.84 | -3.12 | -7.73 | -4.42
[27] | 0.47 | 4.56 | -2.83 | 3.89 | 7.4
[28] | -2.81 | -5.61 | -7.59 | -0.13 | -2.11

C[C@@H](Oc1cc(-c2cnn(C3CCNCC3)c2)cnc1N)c1c(Cl)ccc(F)c1Cl [Crizotinib] (max concentration tested 1000 nM)
Settings | drug sensitivity score
[1] | 0.44
[2] | 2.41
[3] | 0.12
[4] | 0.49
[5] | 0.4
[6] | 1.25
[7] | 3.72
[8] | 0.81
[9] | 3.75
[10] | 0.95
[11] | 1.99
[12] | 0
[13] | 0
[14] | 1.25

percent inhibition of viability [%]
Settings | 0.1 nM | 1 nM | 10 nM | 100 nM | 1000 nM
[15] | -4.24 | -0.87 | 8.61 | 7.22 | 32.6
[16] | -6.03 | -14.8 | -8.66 | -7.59 | 15.5
[17] | -7.13 | -11.6 | -1.57 | -2.22 | 20.3
[18] | -11.7 | -8.52 | 6.99 | -0.76 | 18
[19] | -0.11 | -5.24 | -1.87 | 2.08 | 25.1
[20] | -12.7 | 0.5 | -4.15 | 16.4 | 34.7
[21] | -0.63 | 5.41 | -1.8 | -2.42 | 25.2
[22] | -3.16 | -3.23 | -5.42 | 9.67 | 43.3
[23] | -1.4 | -6.18 | 0.71 | 2.28 | 20.6
[24] | -6.8 | -15.6 | -1.32 | 0.53 | 39.1
[25] | -16.1 | -28 | -15 | -17.9 | -4.35
[26] | -4.84 | -8.42 | -0.95 | 5.13 | 7.41
[27] | -4.43 | -13.2 | -10.6 | -0.67 | 30.1
[28] | -7.86 | -6.31 | -9.93 | -2.46 | 19.7
